Measurements as given in patent USRE36385E, “Glucopyranose derivatives” (Ono Pharmaceutical Co., Ltd., priority 1985, dated 1999).

Experiments:
lympha cells = experiment: Mitogenic activity in vitro (Blastogenic index); format: cell-based, C3H/He male mice; conditions: Mus musculus, Lymphocyte; terminal concentration 1 μg/ml; ratio of 3H-tymidine uptake vs blank control; read-out: Blastgenic Index
Protocol: (1) Mitogenic activity in vitro
Mitogenic activity means activity of activating mitogenic cell division, and in this test system, the amount of tymidine taken into lympha cells was measured and a ratio determined against a blank control call (Blastogenic index) was calculated.
For example, adding the compound prepared in example 1(c) to the test system induced 30 times the amount of tymidine taken into the lympha cells versus the control.
The amounts were measured by density of a radiolabel.
Mytogenic activity in vitro was measured by the following method (See Procedure Method of Immunoexperiment pp 315 published by Japan Immunology Society).
C3H/He male mice 6 weeks old were killed by bloodletting, and their spleens were isolated and homogenized. Homogenizing liquids were filtered with gauze, and suspending cells were prepared with PBS solution. After washing, lymphacytes fractions were gathered with lympholight M. Lymphacytes were suspended in RPMI 1640 cultivation solution (10% FEBS), and the solution was divided into 5×10^5 cells/180 μl/wells. Ten times concentration of the terminal concentration (1 μg/ml) of the compounds of the present invention were added with 20 μl portions to each of the wells.
After cultivation, ^3 H-tymidine 0.5 μCi/20 μl was added to the each cells. Cultivation was continued at 37° C. for another 24 hrs, and amounts of ^3 H-tymidine taken into the cells were measured. Mitogenic activities were calculated as by Blastogenic index in as follows. [formula]

Mice L-M cells = experiment: Inducing activities of TNF in vitro (cytotoxicity of serum from treated mice); format: cell-based, mice (ICR male mice serum; mice L-M cells); conditions: Mus musculus, iv; 10 μg via tail vein, serum 90 mins after; L-M cells 48 hrs; read-out: Cytotoxicities
Protocol: (2) Inducing activities of TNF in vitro
Inducing activity of TNF in vitro was measured by the following test system.
Corye parvum (manufactured by Ribi Immuno Chem. Research Inc.) was administered in ICR male mice 6-weeks old through the tail vein as priming agent. Ten days later, the compounds of the present invention (10 μg) were administered through tail vein as eliciting agent. 90 mins after the administration, blood was collected from the hearts, and blood serums were separated.
Mice L-M cells (10^4 /100 μl/well) suspended in a mixture of the diluted serum solution (100 μl/well) and RPMI 1640 cultivating solution (10% FEBS and 0.2% glucose; manufactured by Nissui Pharmaceutical Co.) were cultivated in an atmosphere of a mixed gas of 5% CO2 -[…], for 48 hrs at 37° C., after adding ^3 H-tymidine taken (0.5 μCi/20 μl/well). Amounts of ^3 H-tymidine taken into cells during the cultivation were measured.
Inducing activities of TNF were measured by cytotoxicity calculated as follows: [formula]

RLδ1 tumor = experiment: Anti-tumor effect on Balb/C mice inoculated with RLδ1 tumor; format: in vivo, female Balb/C mice; conditions: for Survival period: Day 10, day ± standard error; for effect on tumor regression: 3 mg/body, Day 14 (4 day after administration); for Appearent tumor weight: g ± standard error
Protocol: (2) Anti-tumor effect on Balb/C mice inoculated with RLδ1 tumor.
Tumor cells which had been maintained in ascites of Balb/C mouse generation after generation was used. One group is consisting of six female balb/C mice. RLδ1 tumor (1×10^5 cells/0.05 ml) was inoculated into left side of female mice of 6-week old (body weight: 18~20 g). Ten days after, when tumore size came to 7~10 mm, compound of example No. 1(1) or 1(t) was administered by i.p. route (Day 10). Dose of test compound was 1 and 3 mg/body dand each test compound solution volume was 10 ml/kg. Antitumore effect is estimated by survival period and tumor appearent weight.
Test results about survival period and tumor apparent weight are shown in the following Tables II(3) and II(4), respectively.

Meth-A sarcoma = experiment: Anti-tumor effect on Balb/C mice inoculated with Meth-A Sarcoma; format: in vivo, female Balb/C mice; conditions: for Apperarent tumor weight: g ± standard error; for effect on prolongation of life / effect on tumore regression: at the dose of 3 mg/kg; for Survival period: iv tail vein Day 7, 9, 12, day ± standard error
Protocol: (1) Anti-tumor effect on Balb/C mice inocudlated with Meth-A Sarcoma
Anti-tumor effect was measured by the following procedure.
Tumor cells which had been maintained in ascites of Balb/C mouse generation after generation was used. One group is consisting of eight female Balb/C mice. Meth-A sarcoma tumor (1×10^5 cells/0.05 ml) was inoculated into left side of female mice of 7-week old (body weight: 18-20 g). Seven day after, when tumor size came to 6~9 mm, test compound was administered into tail vein first (day 7) and then administered two times (total three times: Day 7, 9, 12). Dose of test compound is 3 and 10 mg/kg or 3, 10 and 30 mg/kg and each test compound solution volume was 10 ml/kg. Anti-tumor effect is estimated by survival period (from inoculation day to death day) and tumor apparent weight. [formula] Test results about survival period and tumor appearent weight are shown in the following Tables II(1) and II(2), respectively.
In experiments, statistic analysis was done with unpaired Student's t(two tailed)-test. […] P values lower than 0.05 were judged to be significant.

[1] = dose 1 (mg/kg as printed) ip, Day 10 (first column)
[2] = dose 1 (mg/kg as printed) ip, second column printed Day 10
[3] = dose 3 (mg/kg as printed) ip, Day 10 (first column)
[4] = dose 3 (mg/kg as printed) ip, second column printed Day 10

CCCCCCCCCCCC(CC(=O)N[C@H]1COC[C@@H](OS(=O)(=O)O)[C@@H]1OC(=O)CCCCCCCCc1ccccc1)OC(=O)CCCCCCCCc1ccccc1 (single isomer, unassigned) [3(c), 2-deoxy-2-[3-(9-phenylnonanoyl)oxytetradecanoyl]amino-3-O-(9-phenylnonanoyl)-4-O-sulfo-1,5-anhydro-D-xylitol]
fold induction at 1 µg/mL (lympha cells): 13.8

CCCCCCCCCCCC(CC(=O)N[C@H]1COC[C@@H](OS(=O)(=O)O)[C@@H]1OC(=O)CCCCCCCCc1ccccc1)OC(=O)CCCCCCCCc1ccccc1 (single isomer, unassigned) [Example 3, 2-deoxy-2-[3-(9-phenylnonanoyl)oxytetradecanoyl]amino-3-O-(9-phenylnonanoyl)-4-O-sulfo-1,5-anhydro-D-xylitol]
cytotoxicity at 0.01 mg (Mice L-M cells): 50.7%

CCCCCCCCCCC[C@@H](CC(=O)N[C@H]1C(O)O[C@H](CO)[C@@H](OS(=O)(=O)O)[C@@H]1OC(=O)CCCCCCCCCCc1ccccc1)OC(=O)CCCCCCCCCCc1ccccc1 (stereo partly drawn) [1(f), 2-deoxy-2-[3S-(11-phenylundecanoyloxy)tetradecanoyl]amino-3-O-(11-phenylundecanoyl)-4-O-sulfo-D-glucopyranose]
fold induction at 1 µg/mL (lympha cells): 23

CCCCCCCCCCC[C@@H](CC(=O)N[C@H]1C(O)O[C@H](CO)[C@@H](OS(=O)(=O)O)[C@@H]1OC(=O)CCCCCCCOc1ccccc1)OC(=O)CCCCCCCOc1ccccc1 (stereo partly drawn) [1(l), 2-deoxy-2-[3S-(8-phenoxyoctanoyloxy)tetradecanoyl]amino-3-O-(8-phenoxyoctanoyl)-4-O-sulfo-D-glucopyranose]
Survival period (RLδ1 tumor; 1 mg/body ip): 47.3 ± 18.8 days | Survival period (RLδ1 tumor; 3 mg/body ip): 55.3 ± 16.4 days | effect on tumor regression (RLδ1 tumor): significant effect | Appearent tumor weight (RLδ1 tumor; [1]): 0.216 ± 0.043 g | Appearent tumor weight (RLδ1 tumor; [2]): 0.234 ± 0.168 g | Appearent tumor weight (RLδ1 tumor; dose 1 (mg/kg) ip, Day 13): 0.351 ± 0.349 g | Appearent tumor weight (RLδ1 tumor; [3]): 0.216 ± 0.029 g | Appearent tumor weight (RLδ1 tumor; [4]): 0.210 ± 0.192 g | Appearent tumor weight (RLδ1 tumor; dose 3 (mg/kg) ip, Day 13): 0.333 ± 0.375 g

CCCCCCCCCCC[C@@H](CC(=O)N[C@H]1C(O)O[C@H](CO)[C@@H](OS(=O)(=O)O)[C@@H]1OC(=O)CCCCCCCCc1cccc2ccccc12)OC(=O)CCCCCCCCc1cccc2ccccc12 (stereo partly drawn) [1(o), 2-deoxy-2-[3S-[9-(1-naphthyl)nonanoyloxy]tetradecanoyl]amino-3-O-[9-(1-naphthyl)nonanoyl]-4-O-sulfo-D-glucopyranose]
fold induction at 1 µg/mL (lympha cells): 17

CCCCCCCCCCC[C@H](CC(=O)N[C@H]1[C@H](OC)O[C@H](CO)[C@@H](OS(=O)(=O)O)[C@@H]1OC(=O)CCCCCCCCc1ccccc1)OC(=O)CCCCCCCCc1ccccc1 [1(t), 2-methyl-2-deoxy-2-[3R-(9-phenylnonanoyloxy)tetradecanoyl]amino-3-O-(9-phenylnonanoyl)-4-O-sulfo-β-D-glucopyranoside]
fold induction at 1 µg/mL (lympha cells): 50 | Survival period (RLδ1 tumor; 1 mg/body ip): 51.8 ± 20.1 days | Survival period (RLδ1 tumor; 3 mg/body ip): 54.0 ± 18.4 days | effect on tumor regression (RLδ1 tumor): significant effect | Appearent tumor weight (RLδ1 tumor; [1]): 0.226 ± 0.082 g | Appearent tumor weight (RLδ1 tumor; [2]): 0.241 ± 0.257 g | Appearent tumor weight (RLδ1 tumor; dose 1 (mg/kg) ip, Day 13): 0.383 ± 0.583 g | Appearent tumor weight (RLδ1 tumor; [3]): 0.213 ± 0.041 g | Appearent tumor weight (RLδ1 tumor; [4]): 0.159 ± 0.092 g | Appearent tumor weight (RLδ1 tumor; dose 3 (mg/kg) ip, Day 13): 0.147 ± 0.153 g

O=C(CCCCCCCCc1cccc2ccccc12)N[C@H]1C(O)O[C@H](CO)[C@@H](OS(=O)(=O)O)[C@@H]1OC(=O)CCCCCCCCc1cccc2ccccc12 (stereo partly drawn) [1(u), 2-deoxy-2-[9-(1-naphthyl)nonanoyl]amino-3-O-[9-(1-naphthyl)nonanoyl]-4-O-sulfo-D-glucopyranose]
fold induction at 1 µg/mL (lympha cells): 10

CCCCCCCCCCOc1ccc(C(=O)N[C@H]2[C@@H](OC)O[C@H](CO)[C@@H](OS(=O)(=O)O)[C@@H]2OC(=O)c2ccc(OCCCCCCCCCC)c(OCCCCCCCCCC)c2)cc1OCCCCCCCCCC [4(b), Methyl 2-deoxy-2-(3,4-didecyloxybenzoyl)amino-3-O-(3,4-didecyloxybenzoyl)-4-O-sulfo-α-D-glucopyranoside]
Apperarent tumor weight (Meth-A sarcoma; 3 mg/kg iv, Day 7): 0.218 ± 0.028 g | Apperarent tumor weight (Meth-A sarcoma; 3 mg/kg iv, Day 10): 0.172 ± 0.094 g | Apperarent tumor weight (Meth-A sarcoma; 3 mg/kg iv, Day 13): 0.272 ± 0.181 g | Apperarent tumor weight (Meth-A sarcoma; 3 mg/kg iv, Day 16): 0.430 ± 0.459 g | Apperarent tumor weight (Meth-A sarcoma; 10 mg/kg iv, Day 7): 0.217 ± 0.022 g | Apperarent tumor weight (Meth-A sarcoma; 10 mg/kg iv, Day 10): 0.154 ± 0.042 g | Apperarent tumor weight (Meth-A sarcoma; 10 mg/kg iv, Day 13): 0.197 ± 0.068 g | Apperarent tumor weight (Meth-A sarcoma; 10 mg/kg iv, Day 16): 0.172 ± 0.141 g | effect on prolongation of life (Meth-A sarcoma): significant effect | effect on tumore regression (Meth-A sarcoma): significant effect | Survival period (Meth-A sarcoma; dose 3 (mg/kg)): 61.6 ± 18.0 days | Survival period (Meth-A sarcoma; dose 10 (mg/kg)): 65.8 ± 20.4 days

CCCCCCCCCCCCCC(=O)N[C@H]1C(O)O[C@H](CO)[C@@H](OS(=O)(=O)O)[C@@H]1OC(=O)c1ccc(OCCCCCCCCCC)c(OCCCCCCCCCC)c1 (stereo partly drawn) [4(c)]
Apperarent tumor weight (Meth-A sarcoma; 3 mg/kg iv, Day 7): 0.200 ± 0.044 g | Apperarent tumor weight (Meth-A sarcoma; 3 mg/kg iv, Day 10): 0.230 ± 0.084 g | Apperarent tumor weight (Meth-A sarcoma; 3 mg/kg iv, Day 13): 0.392 ± 0.176 g | Apperarent tumor weight (Meth-A sarcoma; 3 mg/kg iv, Day 16): 0.578 ± 0.274 g | Apperarent tumor weight (Meth-A sarcoma; 10 mg/kg iv, Day 7): 0.210 ± 0.025 g | Apperarent tumor weight (Meth-A sarcoma; 10 mg/kg iv, Day 10): 0.206 ± 0.053 g | Apperarent tumor weight (Meth-A sarcoma; 10 mg/kg iv, Day 13): 0.242 ± 0.086 g | Apperarent tumor weight (Meth-A sarcoma; 10 mg/kg iv, Day 16): 0.300 ± 0.193 g | Apperarent tumor weight (Meth-A sarcoma; 30 mg/kg iv, Day 7): 0.209 ± 0.023 g | Apperarent tumor weight (Meth-A sarcoma; 30 mg/kg iv, Day 10): 0.168 ± 0.062 g | Apperarent tumor weight (Meth-A sarcoma; 30 mg/kg iv, Day 13): 0.222 ± 0.152 g | Apperarent tumor weight (Meth-A sarcoma; 30 mg/kg iv, Day 16): 0.309 ± 0.259 g | effect on prolongation of life (Meth-A sarcoma): significant effect | effect on tumore regression (Meth-A sarcoma): significant effect | Survival period (Meth-A sarcoma; dose 3 (mg/kg)): 51.9 ± 8.2 days | Survival period (Meth-A sarcoma; dose 10 (mg/kg)): 58.3 ± 13.8 days | Survival period (Meth-A sarcoma; dose 30 (mg/kg)): 71.3 ± 16.1 days

CCCCCCCCCCC[C@@H](CC(=O)N[C@H]1CO[C@H](C)[C@@H](OS(=O)(=O)O)[C@@H]1OC(=O)CCCCCCCCc1ccccc1)OC(=O)CCCCCCCCc1ccccc1 [Example 2, 2,6-deoxy-2-[3S-(9-phenylnonanoyloxy)tetradecanoyl]amino-3-O-(9-phenynonanoyl)-4-O-sulfo-1,5-anhydro-D-glucitol]
fold induction at 1 µg/mL (lympha cells): 33
